Values belong to the compound of their own block, whether it stands above or below them.
Columns and labels:
[1] = molecular target: T1, NO synthase (Rattus norvegicus, UniProt P0DP29+P29476); test: Effects of varying calcium, calmodulin and NADPH on NO synthase activity; type: biochemical
Procedure: (§1) After incubation for 5 min at 22° C., assays were terminated with 2 ml of 20 mM Hepes, pH 5.5/2 mM EDTA, and were applied to 1-ml columns of Dowex A[…]-8 (Na^+ form), which were eluted with 2 ml of water. [^3 H]Citrulline was quantified by liquid scintillation spectroscopy of the 4-ml flow-through.

[2] = molecular target: T2, NO synthase activity in crude brain supernatant preparations (Rattus norvegicus, UniProt P29476); test: NO synthase activity, conversion of [3H]arginine to [3H]citrulline, crude cerebellar/brain supernatant preparations; type: biochemical
T2 construct: not recombinant
Procedure: as §1, with “This example describes the method by which NOS activity was assayed. […] After” for “After”

[3] = molecular target: T1, NO synthase; test: NO synthase activity, conversion of [3H]arginine to [3H]citrulline, purified enzyme; type: biochemical; settings: for EC50: read-out: EC50 for enhancement/stimulation of enzyme activity; for IC50: read-out: Calmodulin antagonists, IC50
[4] = molecular target: NO synthase activity in crude brain supernatant preparations (Rattus norvegicus, UniProt P0DP29); test: NO synthase activity, conversion of [3H]arginine to [3H]citrulline, crude cerebellar/brain supernatant preparations; type: biochemical; settings: crude brain supernatant preparations; read-out: IC50, inhibition of NO synthase activity
Procedure: as §1, with “This example describes the method by which NOS activity was assayed. […] After” for “After”

[5] = molecular target: T3, NO synthase (Rattus norvegicus, UniProt P29476); test: Storage stability of NO synthase activity; type: physicochemical
T3 construct: Eighteen rat cerebella were homogenized; from tissue; host or cells: rat cerebella (supernatant, DEAE eluate, 2',5'-ADP agarose eluate)
Procedure: After incubation for 5 min at 22° C., assays were terminated with 2 ml of 20 mM Hepes, pH 5.5/2 mM EDTA, and were applied to 1-ml columns of Dowex AG502X-8 (Na^+ form), which were eluted with 2 ml of water. [^3 H]Citrulline was quantified by liquid scintillation spectroscopy of the 4-ml flow-through.
The purified enzyme is unstable. When stored at 0° C., 50% of the enzyme activity is lost in 2 hr, whereas the crude supernatant preparation loses 50% activity at 0° C. in 2 days. Stability is enhanced by storing the enzyme in bovine serum albumin (1 mg/ml)/20% (vol/vol) glycerol at -70° C. When stored in this way, the enzyme loses<50%activity in 7 days.

[6] = molecular target: T3, NO synthase; test: Restoration of enzyme activity of DEAE eluate fractions; type: biochemical
Procedure: Eighteen rat cerebella were homogenized in 100 ml of ice-cold buffer A [50 mM Tris-HCl, pH 7.4/1 mM EDTA/antipain (10 mg/liter)/leupeptin (10 mg/liter)/soybean trypsin inhibitor (10 mg/liter)/pepstatin (10 mg/liter)/chymostatin (10 mg/liter)/phenylmethylsulfonyl fluoride (100 mg/liter)], and all subsequent procedures were carried out at 4° C. The homogenate was centrifuged at 20,000×g for 15 min, and the supernatant was loaded at 2 ml/min onto a 20-ml column of diethylminoethyl (DEAE) equilibrated with buffer A. The column was washed with 50 ml of buffer A and eluted with a 100-ml linear gradient of 0-400 mM NaCl in buffer A. Fractions (2.5 ml) were assayed for enzyme activity.
In our preliminary efforts to purify NO synthase, we observed that enzymatic activity adheres to a DEAE column and can be eluted by 1M NaCl. […] Since NO formation requires Ca^2+, we speculated that calmodulin might be involved. […] NO synthase activity elutes in one sharp, major peak followed by a smaller peak of activity, which is observed reproducibly in multiple experiments.

[7] = molecular target: T3, NO synthase; test: Specific activity of fractions during purification of NO synthase; type: biochemical; settings: typical purification, repeated five times

T1 sequence (P29476 whole entry, one chain of several): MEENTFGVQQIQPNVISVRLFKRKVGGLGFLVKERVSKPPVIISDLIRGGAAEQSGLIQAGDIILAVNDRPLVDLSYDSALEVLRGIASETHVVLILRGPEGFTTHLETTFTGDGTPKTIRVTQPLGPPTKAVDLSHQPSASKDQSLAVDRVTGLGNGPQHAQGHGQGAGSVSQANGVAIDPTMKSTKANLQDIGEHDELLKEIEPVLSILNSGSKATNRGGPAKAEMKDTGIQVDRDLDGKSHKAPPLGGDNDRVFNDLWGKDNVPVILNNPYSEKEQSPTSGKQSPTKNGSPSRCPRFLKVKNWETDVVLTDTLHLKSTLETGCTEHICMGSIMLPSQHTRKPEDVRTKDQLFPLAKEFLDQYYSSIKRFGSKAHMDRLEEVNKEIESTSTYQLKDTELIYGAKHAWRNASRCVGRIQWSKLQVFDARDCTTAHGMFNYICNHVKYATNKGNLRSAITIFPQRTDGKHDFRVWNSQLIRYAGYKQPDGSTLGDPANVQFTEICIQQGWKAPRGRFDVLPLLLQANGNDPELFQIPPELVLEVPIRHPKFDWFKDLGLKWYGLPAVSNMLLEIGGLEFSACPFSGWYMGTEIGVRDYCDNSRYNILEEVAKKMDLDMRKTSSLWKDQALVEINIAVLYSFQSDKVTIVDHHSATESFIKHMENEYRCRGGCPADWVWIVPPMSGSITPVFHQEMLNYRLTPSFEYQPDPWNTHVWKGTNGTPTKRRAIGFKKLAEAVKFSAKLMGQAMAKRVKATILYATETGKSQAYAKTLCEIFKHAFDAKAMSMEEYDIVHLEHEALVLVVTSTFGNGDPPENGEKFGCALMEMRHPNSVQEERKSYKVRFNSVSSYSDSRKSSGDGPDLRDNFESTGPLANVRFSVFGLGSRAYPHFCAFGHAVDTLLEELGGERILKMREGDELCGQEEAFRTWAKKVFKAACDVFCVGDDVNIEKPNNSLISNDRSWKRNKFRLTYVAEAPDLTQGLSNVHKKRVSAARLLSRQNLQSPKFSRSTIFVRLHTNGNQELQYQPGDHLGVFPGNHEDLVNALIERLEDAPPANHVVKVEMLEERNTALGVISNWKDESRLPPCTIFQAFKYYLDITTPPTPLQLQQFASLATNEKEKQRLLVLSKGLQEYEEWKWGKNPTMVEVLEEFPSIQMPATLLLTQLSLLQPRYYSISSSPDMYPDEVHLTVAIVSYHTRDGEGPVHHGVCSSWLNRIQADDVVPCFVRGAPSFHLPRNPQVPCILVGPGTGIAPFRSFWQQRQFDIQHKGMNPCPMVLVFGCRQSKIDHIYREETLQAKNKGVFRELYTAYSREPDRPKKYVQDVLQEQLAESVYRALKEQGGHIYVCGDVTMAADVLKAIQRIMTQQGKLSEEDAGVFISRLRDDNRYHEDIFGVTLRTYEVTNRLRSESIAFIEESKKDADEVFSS

IC50 [4]: 50 µM | IC50 [3]: 25 µM
Compound: NCCCCCCNS(=O)(=O)c1cccc2ccccc12 [W-5]

IC50 [4]: 25 µM | IC50 [3]: 70 µM
Compound: NCCCCNS(=O)(=O)c1ccc2c(Cl)cccc2c1 [W-13]

The remaining lines, values behind:

Compound: [Ca+2] [Ca^2+, calcium]
Concentration of maximal enhancement of activity [1]: 1 µM | Stimulation in the absence of NADPH ([1]; absence of NADPH): fails to stimulate NO synthase activity | Activity at high Ca2+ ([1]; concentrations exceeding 100 μM Ca2+): some reduction in activity | EC50 compared with crude preparations ([2]; crude preparations): the same in the pure and crude preparations | EC50 [3]: 0.2 µM

Compound: Calmodulin
Stimulation of NO synthase activity ([1]; FIG. 2A): extremely potent stimulator of NO synthase activity | Influence of added calmodulin on enzyme activity ([2]; crude cerebellar supernatant preparations, calmodulin 1 μM): no influence on enzyme activity | Effect on stability of the enzyme ([5]; presence of calmodulin): Stability is also enhanced | EC50 [3]: 0.01 µM | Effect of addition to DEAE eluate fractions on enzyme activity [6]: restores enzyme activity

Compound: NO synthase: calmodulin-dependent nitric oxide synthase purified to homogeneity from rat cerebella by DEAE and 2',5'-ADP agarose chromatography
Specific activity [7]: 960 nmol/mg/min | Enzyme activity lost on storage ([5]; bovine serum albumin (1 mg/ml)/20% (vol/vol) glycerol at -70° C., 7 days): < 50% | Time to loss of 50% of the enzyme activity ([5]; stored at 0° C.): 2 h | Vmax ([3]; Table 2): 0.96 μmol per min per mg of protein

Source: US5268465A, “Purification and molecular cloning of nitric oxide synthase” (The Johns Hopkins University, priority 1991, dated 1993)
